Results taken from ChEMBL document CHEMBL3351771, “Development of inhibitors of the 2C-methyl-D-erythritol 4-phosphate (MEP) pathway enzymes as potential anti-infective agents” (J Med Chem, 2014).
In brackets after ≈: the same amount, converted by molar mass.

Columns and labels:
Aquifex aeolicus = assay: Inhibition of Aquifex aeolicus IspH assessed as residual activity at 1 mM
[1] = Inhibition of Plasmodium falciparum IspF
[2] = Inhibition of Mycobacterium tuberculosis IspF
[3] = molecular target: T1, 1-deoxy-D-xylulose-5-phosphate synthase (Haemophilus influenzae (strain 86-028NP), UniProt Q4QKG6); assay: Inhibition of Haemophilus influenzae DXS
T1 sequence (Q4QKG6 whole entry): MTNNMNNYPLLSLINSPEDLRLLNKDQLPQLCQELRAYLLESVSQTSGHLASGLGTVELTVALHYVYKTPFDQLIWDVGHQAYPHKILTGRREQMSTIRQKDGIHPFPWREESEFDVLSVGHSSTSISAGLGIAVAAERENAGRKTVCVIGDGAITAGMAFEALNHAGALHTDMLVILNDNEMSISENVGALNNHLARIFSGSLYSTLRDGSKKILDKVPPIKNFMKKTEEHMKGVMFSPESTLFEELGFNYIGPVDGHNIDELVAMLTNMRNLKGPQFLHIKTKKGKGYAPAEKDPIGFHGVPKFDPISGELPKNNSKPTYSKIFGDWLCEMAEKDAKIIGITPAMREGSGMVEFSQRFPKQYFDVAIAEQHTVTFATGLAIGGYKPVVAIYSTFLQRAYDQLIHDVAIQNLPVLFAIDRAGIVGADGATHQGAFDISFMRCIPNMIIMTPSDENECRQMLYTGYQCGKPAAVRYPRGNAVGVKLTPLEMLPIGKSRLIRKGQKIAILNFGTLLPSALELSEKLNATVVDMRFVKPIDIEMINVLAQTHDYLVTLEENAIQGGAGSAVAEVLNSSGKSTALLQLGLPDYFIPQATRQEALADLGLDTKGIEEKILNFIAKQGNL

[4] = Inhibition of Chlamydomonas DXS
Haemophilus influenzae = assay: Antimicrobial activity against Haemophilus influenzae; format: functional
[5] = Inhibition of Plasmodium falciparum Dxr
[6] = Inhibition of Arabidopsis thaliana DXS
[7] = molecular target: T2, 1-deoxy-D-xylulose-5-phosphate synthase (Deinococcus radiodurans (strain ATCC 13939 / DSM 20539 / JCM 16871 /LMG 4051 / NBRC 15346 / NCIMB 9279 / R1 / VKM B-1422), UniProt Q9RUB5); assay: Inhibition of Deinococcus radiodurans DXS
T2 sequence (Q9RUB5 whole entry): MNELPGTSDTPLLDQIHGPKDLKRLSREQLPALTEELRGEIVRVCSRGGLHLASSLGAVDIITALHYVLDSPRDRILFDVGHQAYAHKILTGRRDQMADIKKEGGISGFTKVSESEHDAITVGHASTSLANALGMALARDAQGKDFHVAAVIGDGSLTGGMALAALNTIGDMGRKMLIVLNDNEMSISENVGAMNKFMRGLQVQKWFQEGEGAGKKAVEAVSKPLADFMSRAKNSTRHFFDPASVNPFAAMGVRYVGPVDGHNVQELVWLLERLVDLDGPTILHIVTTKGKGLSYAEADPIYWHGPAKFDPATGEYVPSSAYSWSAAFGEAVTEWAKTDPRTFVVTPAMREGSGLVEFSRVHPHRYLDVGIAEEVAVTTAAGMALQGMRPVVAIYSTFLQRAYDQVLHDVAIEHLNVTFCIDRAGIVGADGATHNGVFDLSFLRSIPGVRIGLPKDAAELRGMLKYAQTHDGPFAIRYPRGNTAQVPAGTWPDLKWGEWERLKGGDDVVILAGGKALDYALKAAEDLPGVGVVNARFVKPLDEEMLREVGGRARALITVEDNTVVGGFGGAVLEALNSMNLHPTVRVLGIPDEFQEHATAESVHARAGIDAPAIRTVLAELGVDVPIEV

[8] = Inhibition of Escherichia coli IspD
[9] = Inhibition of Escherichia coli IspE
[10] = Inhibition of Aquifex aeolicus IspE
[11] = molecular target: T3, 1-deoxy-D-xylulose-5-phosphate synthase (Mycobacterium tuberculosis, UniProt P9WNS3); assay: Binding affinity to Mycobacterium tuberculosis DXS
T3 sequence (P9WNS3 whole entry): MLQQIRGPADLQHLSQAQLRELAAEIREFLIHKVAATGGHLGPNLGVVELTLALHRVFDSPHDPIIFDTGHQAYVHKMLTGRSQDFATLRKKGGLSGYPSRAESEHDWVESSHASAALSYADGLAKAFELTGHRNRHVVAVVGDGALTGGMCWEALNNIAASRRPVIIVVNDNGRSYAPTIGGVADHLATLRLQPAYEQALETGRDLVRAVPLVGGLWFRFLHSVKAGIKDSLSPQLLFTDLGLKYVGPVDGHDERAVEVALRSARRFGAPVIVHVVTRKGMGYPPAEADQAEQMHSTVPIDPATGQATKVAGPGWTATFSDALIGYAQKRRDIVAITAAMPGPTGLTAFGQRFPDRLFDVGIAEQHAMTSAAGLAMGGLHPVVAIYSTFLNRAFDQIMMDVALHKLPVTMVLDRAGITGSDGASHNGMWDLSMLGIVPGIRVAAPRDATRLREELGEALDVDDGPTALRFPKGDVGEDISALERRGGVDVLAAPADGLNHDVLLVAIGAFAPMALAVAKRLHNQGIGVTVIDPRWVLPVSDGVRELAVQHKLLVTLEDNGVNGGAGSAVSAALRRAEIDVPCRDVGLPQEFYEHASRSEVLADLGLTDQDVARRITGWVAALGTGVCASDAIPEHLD

[12] = molecular target: T2, 1-deoxy-D-xylulose-5-phosphate synthase; assay: Binding affinity to Deinococcus radiodurans DXS
[13] = Inhibition of Escherichia coli IspG
[14] = Inhibition of Aquifex aeolicus IspH
[15] = molecular target: T3, 1-deoxy-D-xylulose-5-phosphate synthase; assay: Inhibition of Mycobacterium tuberculosis DXS
[16] = Inhibition of Salmonella enteric DXS; design: species or system Salmonella enterica
[17] = molecular target: T4, 1-deoxy-D-xylulose-5-phosphate synthase (Escherichia coli O127:H6 (strain E2348/69 / EPEC), UniProt B7UJP3); assay: Inhibition of Escherichia coli DXS
T4 sequence (B7UJP3 whole entry): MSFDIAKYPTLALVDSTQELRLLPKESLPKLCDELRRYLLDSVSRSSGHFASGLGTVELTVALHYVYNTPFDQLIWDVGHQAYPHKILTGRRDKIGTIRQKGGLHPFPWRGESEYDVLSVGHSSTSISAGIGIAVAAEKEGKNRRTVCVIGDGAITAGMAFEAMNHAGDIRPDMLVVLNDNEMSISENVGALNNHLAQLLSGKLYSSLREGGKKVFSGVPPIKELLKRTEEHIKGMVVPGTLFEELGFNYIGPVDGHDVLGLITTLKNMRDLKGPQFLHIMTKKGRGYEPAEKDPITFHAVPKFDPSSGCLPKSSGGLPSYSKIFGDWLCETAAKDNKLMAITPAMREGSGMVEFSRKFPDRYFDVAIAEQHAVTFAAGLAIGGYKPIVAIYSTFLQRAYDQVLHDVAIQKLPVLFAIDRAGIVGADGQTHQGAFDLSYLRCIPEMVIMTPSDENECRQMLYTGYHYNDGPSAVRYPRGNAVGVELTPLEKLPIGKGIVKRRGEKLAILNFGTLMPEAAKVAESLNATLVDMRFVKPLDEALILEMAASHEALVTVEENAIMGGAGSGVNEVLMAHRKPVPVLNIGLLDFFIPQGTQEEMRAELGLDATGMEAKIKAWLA

[18] = Inhibition of Yersinia pestis DXS
[19] = Inhibition of Arabidopsis thaliana IspD
[20] = Inhibition of Plasmodium falciparum NF54 IspE
[21] = Inhibition of tomato IspE; design: species or system Solanum lycopersicum
[22] = Inhibition of Mycobacterium smegmatis IspD; design: species or system Mycolicibacterium smegmatis
Escherichia coli [23] = assay: Induction of Escherichia coli IspF assessed as fold increase in activity at 500 uM
[24] = molecular target: T5, 1-deoxy-D-xylulose 5-phosphate reductoisomerase (Mycobacterium tuberculosis, UniProt P9WNS1); assay: Inhibition of Mycobacterium tuberculosis Dxr
T5 sequence (P9WNS1 whole entry): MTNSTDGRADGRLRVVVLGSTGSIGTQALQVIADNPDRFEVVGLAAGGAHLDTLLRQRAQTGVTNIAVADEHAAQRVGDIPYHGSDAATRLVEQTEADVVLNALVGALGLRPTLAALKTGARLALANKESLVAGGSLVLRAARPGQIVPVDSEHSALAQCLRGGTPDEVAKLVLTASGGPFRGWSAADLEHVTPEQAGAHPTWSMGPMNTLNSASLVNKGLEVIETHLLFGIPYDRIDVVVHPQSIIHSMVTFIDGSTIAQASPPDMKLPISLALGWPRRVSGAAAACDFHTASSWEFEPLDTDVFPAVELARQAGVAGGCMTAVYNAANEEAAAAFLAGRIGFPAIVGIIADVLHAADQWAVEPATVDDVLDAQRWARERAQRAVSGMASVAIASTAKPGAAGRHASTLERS

[25] = test system: Mycobacterium tuberculosis; assay: Antimicrobial activity against Mycobacterium tuberculosis; format: functional, organism-based
Escherichia coli [26] = assay: Inhibition of Escherichia coli IspF at 500 uM after 30 mins preincubation
Escherichia coli [27] = assay: Inhibition of Escherichia coli IspF at 500 uM

C/C(=C/COC(=O)Nc1ccc(C)cc1)CO
Activity (Aquifex aeolicus): 62%

CCOC(=O)C1=C(C)N=c2s/c(=C\c3cc(Br)c(O)c(Br)c3)c(=O)n2C1C1CCCS1 (centres undefined)
IC50 [1]: 9.6 µM
IC50 [2]: 6.1 µM

CC1(C)C(=O)ON(Cc2ccccc2Cl)C1=O [KETOCLOMAZONE]
Ki [3]: 23.3 µM
IC50 [4]: 100 µM
MIC (Haemophilus influenzae): 12.5 µg/mL (≈ 49.3 µM)

CN(O)C(=O)CCC(c1ccccc1)P(=O)(O)O (centres undefined)
IC50 [5]: 0.0031 µM

COc1ccc(-c2onc(C(F)(F)F)c2-c2ccc(Br)cc2)c(O)c1
IC50 [6]: 32 µM

Cc1ncc(Cc2csc(CCO)c2C)c(N)n1 [3-DEAZATHIAMINE]
IC50 [7]: 430 µM

O=P(O)(O)OC[C@@H](O)[C@@H](O)CO
IC50 [8]: 1360 µM

COc1ccccc1-c1cnc(N)c(C#CCNS(=O)(=O)C2CC2)c1
IC50 [9]: 242 µM

COCCS(=O)(=O)NCC#Cc1cn(C2CCCS2)c(=O)nc1N (centres undefined)
IC50 [9]: 30 µM
IC50 [10]: > 500 µM

COC(c1cn(CC#Cc2cn(C3CCCS3)c(=O)nc2N)c(C2CCCCC2)n1)C(F)(F)F (centres undefined)
IC50 [9]: 9.9 µM

Nc1nc(=O)n(C2CCCS2)cc1C#CCNS(=O)(=O)C(=O)[C@@H](O)[C@@H](O)[C@H](O)[C@H](O)CO (some centres undefined)
IC50 [9]: 407 µM
IC50 [10]: > 500 µM

Cc1ncc(C[n+]2csc(CCO[P@](=O)(O)OP(=O)(O)O)c2C)c(N)n1
Kd [11]: 3.1 µM
Kd [12]: 0.114 µM

O=C(O)c1ccc(-c2ccc(/C=N/NC3Nc4ccccc4S3)o2)cc1 (centres undefined)
IC50 [6]: 33 µM

FC(F)(F)Oc1cccc(Cn2cnc3ccccc32)c1
IC50 [7]: 595 µM

C#CCOP(=O)(O)OP(=O)(O)O [PROP-2-YNYL DIPHOSPHATE]
IC50 [13]: 0.75 µM

O=P(O)(O)OP(=O)(O)OCc1cccnc1
IC50 [14]: 38 µM

CCCCOP(=O)(O)C(C)=O
Ki [15]: 4 µM
Ki [16]: 8.4 µM
Ki [17]: 5.6 µM
Ki [18]: 7.5 µM

Cc1[nH]c2ccccc2c1C(Nc1ccccn1)c1ccccc1O (centres undefined)
IC50 [9]: 19 µM

COc1ccc2nc(NC(=O)c3cc(-c4ccccc4O)n[nH]3)sc2c1
IC50 [19]: 1.8 µM

CC(C)(C(=O)O)C(=O)N(O)Cc1ccccc1Cl
IC50 [3]: 1 µM

Oc1csc(Nc2nccs2)n1
IC50 [9]: 160 µM

Nc1nc(=O)n(C2CCCS2)cc1C#CCNS(=O)(=O)C1CC1 (centres undefined)
IC50 [9]: 1.7 µM

COc1cc(C#Cc2ccc(C#CCOc3cccnc3)cn2)nc(N)n1
IC50 [9]: 8.7 µM

C/C(=C/CONS(=O)(=O)NC(=O)OC(C)(C)C)CO
Activity (Aquifex aeolicus): 61%

NC1=N/C(=N\NC(=O)c2ccccn2)c2ccc3ccccc3c21
IC50 [20]: 0.058 µM

NC1=N/C(=N\NC(=O)c2cc(Cl)ccn2)c2ccc3ccccc3c21
IC50 [21]: 7.2 µM

CC(=O)P(=O)(O)OCc1ccccc1
Ki [17]: 10.4 µM

CCCCCCCCCCCC[N+](C)(C)CCOc1ccccc1.[Br-] [DOMIPHEN BROMIDE]
IC50 [22]: 33 µg/mL

O=P(O)(O)OP(=O)(O)OCCc1cccnc1 [PYRIDIN-3-YL-ETHYL-DIPHOSPHATE]
IC50 [14]: 9.1 µM

C[C@@](CO)(OP(=O)(O)O)[C@H](O)COP(=O)(O)CP(=O)(O)O
fold change (FC) (Escherichia coli [23]): 1.6

Nc1nc(=O)n(C2CCCS2)cc1S(=O)(=O)c1ccccc1 (centres undefined)
IC50 [9]: 220 µM
IC50 [10]: > 500 µM

O=c1c2ccccc2nc(-c2cccnc2)n1-c1ccc(Br)cn1
IC50 [9]: 3 µM

CN(C)c1ccnc(C(=O)N/N=C2\N=C(N)c3c2ccc2ccccc32)c1
IC50 [20]: 0.018 µM

Nc1nc(=O)n(C2CCCO2)cc1C#CCNS(=O)(=O)C1CC1 (centres undefined)
IC50 [9]: 2 µM

C#CCCOP(=O)(O)OP(=O)(O)O [BUT-3-YNYL DIPHOSPHATE]
IC50 [14]: 0.45 µM

CC(C)(CO)C(=O)N(O)Cc1ccccc1Cl
IC50 [3]: 3.1 µM
MIC (Haemophilus influenzae): 64 µg/mL (≈ 248 µM)

O=C(CCCc1ccccc1)N(O)CCCP(=O)(O)O
IC50 [24]: 17.8 µM
IC50 [25]: 17.8 µM

CCOP(=O)(O)C(C)=O
Ki [17]: 6.7 µM

C[C@@](CO)(OP(=O)(O)O)[C@H](O)COP(=O)(O)CP(=O)(O)OC[C@H]1O[C@@H](n2ccc(N)nc2=O)[C@H](O)[C@@H]1O
inhibition (Escherichia coli [26]): 37%
inhibition (Escherichia coli [27]): 0%

Oc1c(Cc2ccccc2)c(Cl)cc2ncnn12
IC50 [19]: 0.14 µM

N#Cc1cnn2c(O)c(Cc3ccccc3)c(Cl)cc12
IC50 [19]: 0.035 µM
